Experimental data: ChEMBL document CHEMBL3301361, “Experimental in vitro DMPK and physicochemical data on a set of publicly disclosed compounds”

Key:
physchem = conditions: octan-1-ol/water
in vitro = conditions: human, plasma

SMILES | logD (physchem; pH 7.4, LogD7.4) | fraction unbound at 5 h (in vitro; PPB) | logD (physchem; pH 7.4) | fraction unbound at 5 h (in vitro)
O=C1[C@@H]2[C@@H]3CC[C@@H](C3)[C@@H]2C(=O)N1[C@H]1CC[C@H](C(=O)Nc2cccc3cccnc23)CC1 | 3.94 | 0.016 |  | 
c1ccc2[nH]c(CCCc3nc4ccccc4[nH]3)nc2c1 | 3.5 | 0.0031 |  | 
COc1cc(OC)c(S(=O)(=O)N(c2ccccc2)C(C)C)cc1NC(C)=O | 1.6 | 0.005 |  | 
CC(=O)Nc1ccc2ccn(-c3cc(NCCCN(C)C)n4ncc(C#N)c4n3)c2c1 | 1.62 | 0.101 |  | 
COc1ccc2ncc(=O)n(CCN3CC[C@H](NCc4cc5c(cn4)OCCO5)[C@@H](OC)C3)c2c1 | 1.25 | 0.166 |  | 
CN[C@@H](C)C(=O)N[C@H](C(=O)N[C@H]1CCCN(C(=O)c2ccccc2)C1)C1CCCCC1 | 0.87 | 0.552 |  | 
O=c1cc(-c2ccccc2)ccn1-c1ccc2c(cnn2CCN2CCCC2)c1 | 1.6 | 0.17 |  | 
Cc1cn([C@H]2CCCN(Cc3ccc(C(=O)O)c(Oc4cccc(C(F)(F)F)c4)c3)C2)c(=O)[nH]c1=O | -0.38 | 0.0293 |  | 
NCCCCCc1c[nH]c2ccc(F)cc12 |  |  | 0.6 | 0.36
Cc1ccc(S(=O)(=O)N2N=Cc3oc(C)cc3B2O)cc1 | -0.28 | 0.051 |  | 
COc1cc2nc(N3CCN(C(=O)C4CCCO4)CC3)nc(N)c2cc1OC (configuration not stated) [TERAZOSIN] | 0.9 | 0.204 |  | 
CC[C@H]1CN(Cc2cc(Cl)ccc2OCC(=O)O)CCN1S(=O)(=O)c1ccccc1 | 0.44 | 0.0069 |  | 
COc1ccc2c(c1)N(CCN1CCC(NCc3ccc4c(n3)NC(=O)CO4)CC1)C(=O)CC2 | 0.66 | 0.0418 |  | 
CCOc1cc2ncc(C(N)=O)c(Nc3ccc(F)cc3F)c2cc1N1CCC(O)CC1 | 2.74 | 0.089 |  | 
COc1ccc(-c2nc3c(OCC4CCNCC4)c(Br)cnc3[nH]2)cc1 | 1.55 | 0.134 |  | 
O=C(c1cccc(Cc2n[nH]c(=O)c3ccccc23)c1)N1CCN(c2ncccn2)CC1 | 2.13 | 0.0544 |  | 
COCCOc1cc2ncc(C(N)=O)c(Nc3ccc(C)cc3F)c2cc1N1CCN(C)CC1 | 2.24 | 0.151 |  | 
NC(=O)c1cnc(N[C@H]2CCCNC2)c2cc(-c3ccc(Cl)c(F)c3)sc12 | 2.76 | 0.0106 |  | 
Cc1cccc(-c2nc3cc(Cl)ccc3[nH]2)n1 | 4.1 | 0.0111 |  | 
CNc1c(Br)cnc2nc(-c3ccnc(N)c3)[nH]c12 | 2.83 | 0.0268 |  | 
O=C1CN(C(=O)c2ccco2)C(c2ccccc2)c2cc(Cl)ccc2N1 (configuration not stated) | 3 | 0.101 |  | 
O=C(Cc1ccc(OCc2ccccc2)cc1)NO |  |  | 1.92 | 0.0633
CC(C)N(CCC(C(N)=O)(c1ccccc1)c1ccccn1)C(C)C (configuration not stated) [DISOPYRAMIDE] |  |  | -0.54 | 0.666
CC(C)Cn1c(=O)n(C)c(=O)c2c(C(=O)N3CC[C@@H](O)C3)c(Cc3c[nH]c4ncccc34)sc21 | 1.71 | 0.314 |  | 
CCOC(=O)c1ncn2c1CN(C)C(=O)c1cc(F)ccc1-2 [FLUMAZENIL] |  |  | 1.1 | 0.443
Cc1cnc(Nc2cncc(N[C@@H](C)c3ncc(F)cn3)n2)s1 | 1.91 | 0.173 |  | 

SMILES | logD (physchem; pH 7.4, LogD7.4) | fraction unbound at 5 h (in vitro; PPB) | logD (physchem; pH 7.4) | fraction unbound at 5 h (in vitro)
N#Cc1ccc2ccc(=O)n(CCN3CC[C@H](NCc4ccc5c(n4)NC(=O)CO5)[C@H](O)C3)c2c1 | 0.11 | 0.208 |  | 
CN[C@@H](C)C(=O)N[C@H](C(=O)N[C@H]1CCCCN(Cc2ccccc2)C1)C1CCCCC1 | 2.12 | 0.197 |  | 
CC(C)(C)OC(=O)NCCCSC[C@H]1O[C@@H](n2cnc3c(N)ncnc32)[C@H](O)[C@@H]1O | 1.2 | 0.236 |  | 
CN[C@@H](C)C(=O)N[C@H](C(=O)N[C@H]1CCCN(CCc2ccccc2)C1)C(C)(C)C | 1.46 | 0.506 |  | 
CC(=O)Nc1ccc2ccn(-c3cc(NC4CC4)n4ncc(C#N)c4n3)c2c1 |  |  | 3.29 | 0.0139
CSc1ccc(N2C(N)=NC(N)=NC2(C)C)cc1 | -0.84 | 0.666 |  | 
Cc1c(Cl)ccc(OC2CCN(C[C@H](O)CNC(=O)c3c[nH]c(=O)cc3C(F)(F)F)CC2)c1Cl | 3.14 | 0.0335 |  | 
CC(=O)N[C@H](C)c1ccc(Nc2ncc3cc(-c4ccncc4)c(C)cc3n2)cc1 | 3.45 | 0.0191 |  | 
CC(=O)Nc1ccc(-c2ccnc(Nc3ccc(N4CCOCC4)cc3)n2)cc1 | 2.91 | 0.0676 |  | 
Cc1cn([C@H]2CCCN(S(=O)(=O)c3ccc(C(N)=O)c(Oc4cccc(Cl)c4)c3)C2)c(=O)[nH]c1=O | 1.96 | 0.0358 |  | 
CC(=O)Nc1ccc2c(c1)N(c1cc(NC3CC3)n3ncc(C#N)c3n1)CC2 | 3.3 | 0.0251 |  | 
C[C@H](Nc1ncc(F)c(Nc2cc(N(C)C)[nH]n2)n1)c1ncc(F)cn1 | 1.98 | 0.22 |  | 
CC(=O)Nc1ccc2cnn(-c3cc(NC4CC4)n4ncc(C#N)c4n3)c2c1 | 3.44 | 0.0191 |  | 
CN[C@@H](C)C(=O)N[C@H](C(=O)N[C@H]1CCN(C(=O)c2ccccc2)C1)C1CCCCC1 | 0.82 | 0.661 |  | 
CS(=O)(=O)c1ccc2c(C(=O)NC[C@@H](O)CN3CCC(Oc4ccc(C#N)c(Cl)c4)CC3)c[nH]c(=O)c2c1 | 1.41 | 0.319 |  | 
C[C@@H](NC1=CC(=O)CNC1)c1ccc(Nc2ncc3cc(-c4ccncc4)ccc3n2)cc1 | 2.49 | 0.0358 |  | 
O=c1[nH]c([C@@H]2CCCN2)nc2c1oc1ccc(Br)cc12 | 2.19 | 0.051 |  | 
O=C1COc2ccc(CNC3CCN(CCN4C(=O)COc5ccc(Cl)cc54)CC3)nc2N1 |  |  | 1.33 | 0.072
COc1ccc2ncc(=O)n(CCN3CCC(NCc4cc5c(cn4)OCCO5)CC3)c2n1 | 0.83 | 0.465 |  | 
Nc1ccc(OCCc2ccccc2)cc1 | 2.71 | 0.0343 |  | 
CN[C@@H](C)C(=O)N[C@H](C(=O)N[C@H]1CCN(C(=O)Cc2ccccc2)C1)C1CCCCC1 | 0.81 | 0.671 |  | 
Cc1cc(Nc2nc(N[C@@H](C)c3ncc(F)cn3)ncc2F)n[nH]1 | 1.79 | 0.471 |  | 
COc1ccc2c(c1)N(CCN1CCC(NCc3cc4c(cn3)OCCO4)CC1)C(=O)CO2 |  |  | 1.24 | 0.176
COc1cc(Nc2nc(N[C@@H](C)c3ncc(F)cn3)nc(N3CCOCC3)c2Cl)n[nH]1 | 2.85 | 0.0784 |  | 
O=C1COc2ccccc2N1CCN1CCC(NCc2cc3c(cn2)OCCO3)CC1 |  |  | 1.04 | 0.253
Cc1ccc(-c2csc3ncnc(O)c23)cc1 | 2.59 | 0.0391 |  | 

SMILES | logD (physchem; pH 7.4, LogD7.4) | fraction unbound at 5 h (in vitro; PPB) | logD (physchem; pH 7.4) | fraction unbound at 5 h (in vitro)
CO[C@H]1CN(CCn2c(=O)ccc3ccc(C#N)cc32)CC[C@@H]1NCc1cc2c(cn1)OCCO2 | 1.05 | 0.16 |  | 
COc1cc(Nc2cc(N3CCOCC3)nc(N[C@@H](C)c3ncc(F)cn3)n2)n[nH]1 | 2.18 | 0.276 |  | 
C1CCC(C(CC2CCCCN2)C2CCCCC2)CC1 (configuration not stated) [PERHEXILINE] | 3.02 | 0.0156 |  | 
O=c1cc(O)oc2c1c(=O)n(-c1ccccc1)c1ccccc21 | 0.96 | 0.0183 |  | 
COCCNC(=O)c1ccc(Nc2ncc3cc(-c4ccncc4OC)ccc3n2)cc1 | 3.14 | 0.002 |  | 
CC(C(=O)O)c1ccc2oc(-c3ccc(Cl)cc3)nc2c1 (configuration not stated) [BENOXAPROFEN] | 1.3 | 0.0024 |  | 
COc1cc(Nc2nc(N[C@@H](C)c3ncc(F)cn3)ncc2Br)n[nH]1 | 2.6 | 0.124 |  | 
O=C1CN(C(=O)c2ccccc2)C(c2ccccc2)c2cc(Cl)ccc2N1 (configuration not stated) | 3.31 | 0.0606 |  | 
C[C@H](Nc1ncc(F)c(Nc2cc(C3CC3)[nH]n2)n1)c1ncc(F)cn1 | 2.47 | 0.224 |  | 
O=C(CSc1nccn(-c2ccc(F)c(F)c2)c1=O)NC1CCCC1 | 2 | 0.28 |  | 
O=C(Nc1ccccc1F)NC1N=C(c2ccccc2)c2ccccc2NC1=O (configuration not stated) |  |  | 3.8 | 0.0262
COc1cccc(/C=C2\SC(=O)NC2=O)c1N1CCC[C@@H](N)C1 | 1.27 | 0.0836 |  | 
C[C@H](CO)Nc1nc(SCc2cccc(F)c2F)nc2[nH]c(N)nc12 | 3.22 | 0.0229 |  | 
COc1cc2ncc(C(N)=O)c(Nc3ccc(F)cc3F)c2cc1N1CCN(C)CC1 | 2.18 | 0.253 |  | 
COc1ccc(-c2nc3c(NCCCNC(=O)C4(CN)CC4)c(Br)cnc3[nH]2)cc1 | 1.9 | 0.0293 |  | 
CN1CCN(c2ccc3ncc(C(N)=O)c(Nc4ccc(F)cc4F)c3c2)CC1 | 2.3 | 0.258 |  | 
COc1ccnc(CCc2nc3cc(Br)cnc3[nH]2)c1 | 2.92 | 0.0409 |  | 
C[C@H](CO)Nc1nc(SCc2ccccc2)nc2nc(N)sc12 | 3.12 | 0.0457 |  | 
CC(=O)Nc1ccc(Nc2ncc3cc(-c4ccncc4)ccc3n2)cc1 | 3.04 | 0.006 |  | 
COc1ccc(-c2nc3c(NCCCNC(C)=O)c(Br)cnc3[nH]2)cc1 | 3.28 | 0.0262 |  | 
COC(=O)[C@H]1[C@@H](c2ccc(I)cc2)C[C@@H]2CC[C@H]1N2CCCF [IOFLUPANE] |  |  | 2.3 | 0.201
COc1ccc2ncc(=O)n(CCN3CC[C@H](NCc4ccc5c(n4)NC(=O)CO5)[C@H](O)C3)c2c1 | 0.39 | 0.137 |  | 
O=C(CC12CC3CC(CC(C3)C1)C2)Nc1cccc2nc(NCCNCCO)ccc12 | 1.79 | 0.0457 |  | 
O=C(NO)C1COC(c2ccc(F)c(C(F)(F)F)c2)=N1 (configuration not stated) | 1.53 | 0.0836 |  | 
